{
  "source": "patent US10980818B2",
  "about": "“Methods for treating ocular inflammatory diseases” (SUN PHARMA GLOBAL FZE, priority 2009, dated 2021)",
  "test": "Release of fluorometholone from the gel in the rabbit eye, measured in the aqueous humor",
  "type": "in vivo",
  "settings": "measured by fluorometholone contained in the aqueous humor; from the gel of the aqueous polymer suspension",
  "procedure": "The viscous gels that result from fluid eyedrops delivered by means of the aqueous suspensions of this invention have residence times in the eye ranging from about 2 to about 12 hours, e.g., from about 3 to about 6 hours. The active ingredients contained in these ophthalmically acceptable vehicles can be released from the gels at rates that depend on such factors as the active ingredient itself and its physical form, the extent of drug loading and the pH of the system, as well as on any drug delivery adjuvants, such as ion exchange resins compatible with the ocular surface, which can also be present.",
  "data": [
    {"smiles": "CC(=O)[C@@]1(O)CC[C@H]2[C@@H]3C[C@H](C)C4=CC(=O)C=C[C@]4(C)[C@@]3(F)[C@@H](O)C[C@@]21C", "note": "[fluorometholone]", "values": [
      {"measurement": "Release rates in the rabbit eye", "value": "in excess of four hours"}
    ]}
  ]
}
